Among the test systems are COLO 205; UACC-257; SW-620; SF-295; T47D; HOP-62; NCI-H522; PC-3; DU-145; OVCAR-4; OVCAR-3; MDA-MB-435; HOP-92; SK-MEL-2; K562; TK-10; CAKI-1; OVCAR-5; SR; HCT-15.
Holding throughout (assay): NCI tumour cell line growth inhibition, 48 h

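Results reflect a 48-hour exposure of cells in 96-well plates to compound at five concentrations. GI50 = concentration required for 50% inhibition of growth.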 The source made the active and inactive calls. Cut-off read from the data, not from the text of the source: active = GI50 up to about 1.1 µM and inactive = higher.

Consider `N#CC1=C2SCCN2C(=O)C(C#N)C12CCCCC2` (stereo not given), for which the GI50 in the assay with COLO 205, with UACC-257, with SW-620, in the assay with SF-295, with T47D and with HOP-62 was > 100 µM (inactive) in each case. The GI50 with NCI-H522, in the assay on PC-3, with DU-145, in the assay on OVCAR-4, in the assay on OVCAR-3 and in the assay with MDA-MB-435 was > 100 µM (inactive) throughout. Moreover, the GI50 in the assay with HOP-92, in the assay on SK-MEL-2, in the assay with K562, with TK-10, in the assay with CAKI-1 and in the assay on OVCAR-5 was > 100 µM (inactive) each time. Also, the GI50 in the assay with SR was > 100 µM (inactive); with HCT-15 it was above 100 µM.
For the compound `CC(=O)c1ccc2c3c1[C@@H]1O[C@@H]1c1cccc(c1-3)[C@@H]1O[C@H]21`, the GI50 in the assay on COLO 205 is 9.79 µM (inactive); in the assay on UACC-257, 16.9 µM (inactive); with SW-620, 2.54 µM (inactive); with SF-295, 15 µM (inactive); in the assay with T47D it was 6.76 µM (inactive); in the assay on HOP-62, 13.7 µM (inactive). Besides, the GI50 is 5.4 µM (inactive) in the assay with NCI-H522; 17.3 µM (inactive) with PC-3; 8.39 µM (inactive) in the assay with DU-145; 13.6 µM (inactive) with OVCAR-4; 13.5 µM (inactive) with OVCAR-3; 6.92 µM (inactive) in the assay with MDA-MB-435. Moreover, the GI50 is 13.3 µM (inactive) in the assay with HOP-92; 14.1 µM (inactive) with SK-MEL-2; 4.47 µM (inactive) in the assay with K562; 20.7 µM (inactive) with TK-10; 4.72 µM (inactive) in the assay on CAKI-1; 17.7 µM (inactive) with OVCAR-5. For the same compound, the GI50 was > 100 µM (inactive) in the assay on SR and 3.44 µM with HCT-15.
On to `Cc1ccc(S(=O)(=O)NNC(C[N+](=O)[O-])c2ccccc2)cc1` (stereo not given), for which the GI50 in the assay with COLO 205 was 14.4 µM (inactive); with UACC-257 it was 19.7 µM (inactive); with SW-620 it was 11.5 µM (inactive); in the assay with SF-295 it was 21.3 µM (inactive); in the assay with T47D, 10.9 µM (inactive); with HOP-62 it was 26.7 µM (inactive). For the same compound, the GI50 with NCI-H522 is 23.4 µM (inactive); with PC-3, 57.9 µM (inactive); in the assay with DU-145, 44.5 µM (inactive); with OVCAR-4, 15.8 µM (inactive); in the assay on OVCAR-3, 21.7 µM (inactive); in the assay with MDA-MB-435, 2.91 µM (inactive). Further, the GI50 with HOP-92 was 39.8 µM (inactive); with SK-MEL-2, 34.2 µM (inactive); with K562, 0.787 µM (active); in the assay with TK-10, 24.2 µM (inactive); with CAKI-1, 22.5 µM (inactive); with OVCAR-5 it was 44.8 µM (inactive). Further, the GI50 was 1.06 µM (active) in the assay with SR and 15.9 µM with HCT-15.
On to `CC(=O)Oc1c(-c2ccccc2)oc2ccccc12`, for which the GI50 with COLO 205 is 1.9 µM (inactive); in the assay with UACC-257 it was 2.59 µM (inactive); in the assay with SW-620, 3.1 µM (inactive); with SF-295 it was 0.946 µM (active); with T47D, 1.98 µM (inactive); with HOP-62, 2.42 µM (inactive). For the same compound, the GI50 is 2.3 µM (inactive) with NCI-H522; 1.53 µM (inactive) in the assay on PC-3; 3.96 µM (inactive) in the assay with DU-145; 3.19 µM (inactive) with OVCAR-4; 2.12 µM (inactive) in the assay with OVCAR-3; 2.43 µM (inactive) in the assay on MDA-MB-435. Besides, the GI50 in the assay on HOP-92 was 2.4 µM (inactive); in the assay on SK-MEL-2, 1.8 µM (inactive); in the assay on K562, 2.06 µM (inactive); in the assay with TK-10, 3.73 µM (inactive); in the assay with CAKI-1, 1.11 µM (active); with OVCAR-5 it was 1.85 µM (inactive). In addition, the GI50 was 0.394 µM (active) with SR and 1.99 µM in the assay with HCT-15.
For `CCCCN(C)C(=O)C1=C(C)NC(C)=C(C(=O)N(C)CCCC)C1`, the GI50 in the assay with COLO 205 is > 100 µM (inactive); with UACC-257, > 100 µM (inactive); in the assay with SW-620, > 100 µM (inactive); with SF-295, > 100 µM (inactive); in the assay on T47D it was 54.7 µM (inactive); in the assay on HOP-62, > 100 µM (inactive). The GI50 with NCI-H522, in the assay on PC-3, with DU-145, in the assay with OVCAR-4, in the assay on OVCAR-3 and in the assay on MDA-MB-435 was > 100 µM (inactive) each time. For the same compound, the GI50 in the assay with HOP-92 was > 100 µM (inactive); in the assay on SK-MEL-2, > 100 µM (inactive); in the assay on K562, 54.3 µM (inactive); in the assay with TK-10, > 100 µM (inactive); with CAKI-1 it was > 100 µM (inactive); in the assay with OVCAR-5, > 100 µM (inactive). In addition, the figures for the GI50 with SR and with HCT-15 were 83.9 µM (inactive) and above 100 µM, respectively.
Regarding `O=C1C=CC(=O)c2c1ccc1c3ccccc3n(CCCCCn3c4ccccc4c4ccc5c(c43)C(=O)C=CC5=O)c21`, the GI50 is 15.2 µM (inactive) in the assay with COLO 205; 16.3 µM (inactive) in the assay on UACC-257; 8.17 µM (inactive) in the assay on SW-620; > 100 µM (inactive) in the assay with SF-295; 4.81 µM (inactive) with T47D; > 91.4 µM (inactive) with HOP-62. The GI50 in the assay with NCI-H522 is 2.02 µM (inactive); in the assay on PC-3, 17.1 µM (inactive); with DU-145, > 55.7 µM (inactive); in the assay with OVCAR-4, > 10 µM (inactive); in the assay with OVCAR-3 it was 17.9 µM (inactive); in the assay with MDA-MB-435, 22 µM (inactive). In addition, the GI50 is 16.5 µM (inactive) in the assay on HOP-92; 23.3 µM (inactive) in the assay on SK-MEL-2; 2.06 µM (inactive) in the assay on K562; 12.4 µM (inactive) in the assay on TK-10; 6.98 µM (inactive) with CAKI-1; > 49.5 µM (inactive) in the assay with OVCAR-5. The GI50 is 1.9 µM (inactive) with SR and 17.2 µM with HCT-15.
Regarding `O=C(CC(C(=O)c1cccs1)c1ccccc1)c1ccccc1O` (stereo not given), the GI50 with COLO 205 was > 50.7 µM (inactive); in the assay with UACC-257, > 30.7 µM (inactive); with SW-620, 46 µM (inactive); in the assay on SF-295, 8.67 µM (inactive); in the assay with T47D, 9.66 µM (inactive); in the assay on HOP-62 it was 18.2 µM (inactive). For the same compound, the GI50 in the assay on NCI-H522 is 3.21 µM (inactive); in the assay on PC-3, 14 µM (inactive); in the assay on DU-145, 36.4 µM (inactive); with OVCAR-4, 16.4 µM (inactive); with OVCAR-3, 83 µM (inactive); in the assay with MDA-MB-435, 3.1 µM (inactive). For the same compound, the GI50 in the assay on HOP-92 is 7.6 µM (inactive); in the assay on SK-MEL-2, > 21.8 µM (inactive); in the assay on K562, 3.1 µM (inactive); in the assay with TK-10, > 41.1 µM (inactive); in the assay with CAKI-1, 8.95 µM (inactive); in the assay on OVCAR-5, > 100 µM (inactive). Besides, the GI50 with SR was 9.27 µM (inactive); in the assay with HCT-15, 8 µM.
Take `Cc1cccc(C)c1/N=N/c1ccc(O)c(CN(C)C)c1`: the GI50 with COLO 205 is 22.3 µM (inactive); in the assay with UACC-257 it was 32.7 µM (inactive); in the assay on SW-620, 91.2 µM (inactive); in the assay with SF-295, 71.6 µM (inactive); with T47D, 23.6 µM (inactive); with HOP-62 it was 51.6 µM (inactive). For the same compound, the GI50 with NCI-H522 is 42.6 µM (inactive); with PC-3, 62.8 µM (inactive); in the assay with DU-145, > 100 µM (inactive); in the assay with OVCAR-4, 47.9 µM (inactive); in the assay with OVCAR-3, 45.3 µM (inactive); in the assay on MDA-MB-435, 41.8 µM (inactive). Also, the GI50 is 3.21 µM (inactive) in the assay on HOP-92; 25.2 µM (inactive) with SK-MEL-2; 28.6 µM (inactive) in the assay on K562; 59.6 µM (inactive) with TK-10; 79.4 µM (inactive) in the assay on CAKI-1; 28.3 µM (inactive) with OVCAR-5. For the same compound, the GI50 in the assay on SR is 34.4 µM (inactive); in the assay with HCT-15 it was above 100 µM.
For `CC(=O)Oc1ccc(-c2nnc(-c3ccc(OC(C)=O)cc3)nn2)cc1`, the GI50 with COLO 205, in the assay on UACC-257, in the assay on SW-620, with SF-295, in the assay with T47D and with HOP-62 was > 100 µM (inactive) throughout. The GI50 with NCI-H522, in the assay with PC-3, with DU-145, in the assay on OVCAR-4, with OVCAR-3 and in the assay on MDA-MB-435 was > 100 µM (inactive) throughout. In addition, the GI50 in the assay on HOP-92 is > 100 µM (inactive); in the assay on SK-MEL-2 it was > 100 µM (inactive); in the assay on K562, 55.5 µM (inactive); in the assay with TK-10, > 100 µM (inactive); with CAKI-1, > 100 µM (inactive); in the assay with OVCAR-5, > 100 µM (inactive). In addition, the GI50 with SR was 20.4 µM (inactive); in the assay with HCT-15, 51.4 µM.
For the compound `CC(C)(Oc1ccc(C2C[C@H]2Cl)cc1)C(=O)O` (stereo not given in full), the GI50 in the assay with COLO 205 is > 100 µM (inactive); in the assay on UACC-257, > 100 µM (inactive); with SW-620, > 100 µM (inactive); in the assay with SF-295, > 100 µM (inactive); in the assay with T47D, 15.3 µM (inactive); with HOP-62, > 100 µM (inactive). Further, the GI50 in the assay with NCI-H522, in the assay on PC-3, with DU-145, in the assay with OVCAR-4, in the assay with OVCAR-3 and with MDA-MB-435 was > 100 µM (inactive) in each case. Further, the GI50 with HOP-92, with SK-MEL-2, in the assay on K562, with TK-10, with CAKI-1 and in the assay with OVCAR-5 was > 100 µM (inactive) throughout. Further, the GI50 is > 100 µM (inactive) in the assay on SR and above 100 µM in the assay with HCT-15.
